According to patent US8802597B2, “Herbicidal pyrimidines” (E I du Pont de Nemours and Company, priority 2003, dated 2014):
Like-named read-outs stand apart in the source and are kept apart here.

Tests used:
Assay type in all cases: in vivo
[1] = tested on: chickweed (Stellaria media); test: Test C postemergence; conditions: Stellaria media, post-emergence
Procedure, shortened: (§1)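 Injury scored visually 12–14 days after application on 0–100 scale (100 = complete control), relative to controls. Compounds, formulated with surfactant in non-phytotoxic solvent, applied to soil at planting (pre) or to 1- to 4-leaf plants 2–18 cm tall (post) in greenhouse.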

[2] = tested on: yellow nutsedge (Cyperus esculentus); test: Test C pre/postemergence; conditions: Cyperus; for pest or weed control at 31 g/ha: 31 g ai/ha; for pest or weed control at 62 g/ha: 62 g ai/ha
Procedure, shortened: as §1

kochia (Kochia scoparia) = test: Test C pre/postemergence; conditions: Bassia scoparia; for pest or weed control at 31 g/ha: 31 g ai/ha; for pest or weed control at 62 g/ha: 62 g ai/ha; for pest or weed control at 125 g/ha: 125 g ai/ha
Procedure, shortened: as §1

[3] = tested on: common ragweed (Ambrosia elatior); test: Test C pre/postemergence; conditions: Ambrosia artemisiifolia; for pest or weed control at 31 g/ha: 31 g ai/ha; for pest or weed control at 62 g/ha: 62 g ai/ha
Procedure, shortened: as §1

[4] = tested on: morningglory (Ipomoea coccinea); test: Test C pre/postemergence; conditions: Ipomoea; for pest or weed control at 31 g/ha: 31 g ai/ha; for pest or weed control at 62 g/ha: 62 g ai/ha; for pest or weed control at 125 g/ha: 125 g ai/ha
Procedure, shortened: as §1

[5] = tested on: giant foxtail (Setaria faberii); test: Test C pre/postemergence; conditions: Setaria faberi; for pest or weed control at 31 g/ha: 31 g ai/ha; for pest or weed control at 62 g/ha: 62 g ai/ha
Procedure, shortened: as §1

[6] = post-emergence, Postemergence, read-out: Plant response rating (scale of 0 to 100), Nutsedge, Yellow
[7] = pre-emergence, Preemergence, scale 0 to 100, 0 no effect, 100 complete control, read-out: Plant response rating, Nutsedge, Yellow
[8] = post-emergence, Postemergence, read-out: Plant response rating (scale of 0 to 100), Kochia
[9] = pre-emergence, Preemergence, scale 0 to 100, 0 no effect, 100 complete control, read-out: Plant response rating, Kochia
[10] = post-emergence, Postemergence, read-out: Plant response rating (scale of 0 to 100), Ragweed
[11] = pre-emergence, Preemergence, scale 0 to 100, 0 no effect, 100 complete control, read-out: Plant response rating, Ragweed
[12] = post-emergence, Postemergence, read-out: Plant response rating (scale of 0 to 100), Morningglory
[13] = pre-emergence, Preemergence, scale 0 to 100, 0 no effect, 100 complete control, read-out: Plant response rating, Morningglory
[14] = post-emergence, Postemergence, read-out: Plant response rating (scale of 0 to 100), Foxtail, Giant
[15] = pre-emergence, Preemergence, scale 0 to 100, 0 no effect, 100 complete control, read-out: Plant response rating, Foxtail, Giant

Nc1nc(C2CC2)nc(C(=O)OCc2ccccc2)c1Cl [Compound 78, phenylmethyl 6-amino-5-chloro-2-cyclopropyl-4-pyrimidinecarboxylate]
10%: pest or weed control at 16 g/ha ([3]; pre-emergence, Preemergence, 16 g ai/ha, scale 0 to 100, 0 no effect, 100 complete control, read-out: Plant response rating, Ragweed)
80%: pest or weed control at 31 g/ha (kochia (Kochia scoparia); [9]) | pest or weed control at 62 g/ha [3, 11]
85%: pest or weed control at 62 g/ha [3, 10] | pest or weed control at 62 g/ha [4, 13]
65%: pest or weed control at 31 g/ha [3, 11] | pest or weed control at 125 g/ha ([5]; post-emergence, Postemergence, 125 g ai/ha, scale 0 to 100 (0 no effect, 100 complete control), read-out: Foxtail, Giant plant response rating)
70%: pest or weed control at 250 g/ha ([1]; 250 g ai/ha, scale 0 to 100, read-out: Plant response rating, Chickweed) | pest or weed control at 16 g/ha (kochia (Kochia scoparia); pre-emergence, Preemergence, 16 g ai/ha, scale 0 to 100, 0 no effect, 100 complete control, read-out: Plant response rating, Kochia) | pest or weed control at 31 g/ha [3, 10] | pest or weed control at 31 g/ha [4, 13] | pest or weed control at 250 g/ha ([5]; post-emergence, Postemergence, 250 g ai/ha, scale 0 to 100, read-out: Plant response rating, Foxtail, Giant)
30%: pest or weed control at 62 g/ha [5, 14]
0%: pest or weed control at 31 g/ha ([1]; 31 g ai/ha, read-out: Plant response rating (scale of 0 to 100), Chickweed) | pest or weed control at 62 g/ha ([1]; 62 g ai/ha, read-out: Plant response rating (scale of 0 to 100), Chickweed) | pest or weed control at 31 g/ha [2, 6] | pest or weed control at 62 g/ha [2, 6] | pest or weed control at 125 g/ha ([2]; post-emergence, Postemergence, 125 g ai/ha, scale 0 to 100 (0 no effect, 100 complete control), read-out: Nutsedge, Yellow plant response rating) | pest or weed control at 250 g/ha ([2]; post-emergence, Postemergence, 250 g ai/ha, scale 0 to 100, read-out: Plant response rating, Nutsedge, Yellow) | pest or weed control at 16 g/ha ([2]; pre-emergence, Preemergence, 16 g ai/ha, scale 0 to 100, 0 no effect, 100 complete control, read-out: Plant response rating, Nutsedge, Yellow) | pest or weed control at 31 g/ha [2, 7] | pest or weed control at 62 g/ha [2, 7] | pest or weed control at 16 g/ha ([4]; pre-emergence, Preemergence, 16 g ai/ha, scale 0 to 100, 0 no effect, 100 complete control, read-out: Plant response rating, Morningglory) | pest or weed control at 31 g/ha [5, 14] | pest or weed control at 16 g/ha ([5]; pre-emergence, Preemergence, 16 g ai/ha, scale 0 to 100, 0 no effect, 100 complete control, read-out: Plant response rating, Foxtail, Giant) | pest or weed control at 31 g/ha [5, 15] | pest or weed control at 62 g/ha [5, 15]
90%: pest or weed control at 31 g/ha (kochia (Kochia scoparia); [8]) | pest or weed control at 62 g/ha (kochia (Kochia scoparia); [8]) | pest or weed control at 31 g/ha [4, 12] | pest or weed control at 62 g/ha [4, 12]
100%: pest or weed control at 62 g/ha (kochia (Kochia scoparia); [9]) | pest or weed control at 125 g/ha (kochia (Kochia scoparia); pre-emergence, Preemergence, scale 0 to 100, read-out: Plant response rating, Kochia) | pest or weed control at 250 g/ha ([3]; post-emergence, Postemergence, 250 g ai/ha, scale 0 to 100, read-out: Plant response rating, Ragweed) | pest or weed control at 125 g/ha ([4]; post-emergence, Postemergence, scale 0 to 100 (0 no effect, 100 complete control), read-out: Morningglory plant response rating) | pest or weed control at 250 g/ha ([4]; post-emergence, Postemergence, 250 g ai/ha, scale 0 to 100, read-out: Plant response rating, Morningglory) | pest or weed control at 125 g/ha ([4]; pre-emergence, Preemergence, scale 0 to 100, read-out: Plant response rating, Morningglory)
95%: pest or weed control at 125 g/ha (kochia (Kochia scoparia); post-emergence, Postemergence, scale 0 to 100 (0 no effect, 100 complete control), read-out: Kochia plant response rating) | pest or weed control at 250 g/ha (kochia (Kochia scoparia); post-emergence, Postemergence, 250 g ai/ha, scale 0 to 100, read-out: Plant response rating, Kochia) | pest or weed control at 125 g/ha ([3]; post-emergence, Postemergence, 125 g ai/ha, scale 0 to 100 (0 no effect, 100 complete control), read-out: Ragweed plant response rating)
